Where two headings read alike, the source gives them in different places.
Legend:
[1] = system: NO production in IFN-γ/LPS-stimulated RAW 264.7 macrophages; assay: NO suppression (Griess nitrite determination) in IFN-γ/LPS-stimulated RAW 264.7 macrophages; type: cell-based, murine; conditions: for NO Inhibition at 50 µM (%) ± S.E.M: 50 µM test concentration; for inhibition at 50 µM: RAW264.7, 50 µM test concentration, read-out: NO Inhibition at 50 µM (%) ± S.E.M
Description: The synthesized compounds were screened for NO suppression activity in IFN-γ/LPS-stimulated RAW 264.7 macrophages at a 50 µM test concentration. […] The IC50 values of the fifty-seven bioactive compounds were determined and compared to that of the positive control, curcumin. An MTT assay was also carried out to confirm that NO inhibition was not due to cytotoxicity. […] The complete bioassay results of all the compounds are provided as Table S2 in Supplementary Data. RAW 264.7 murine macrophages cells obtained from American Type Culture Collection (ATCC, Rockville, MD, USA) were grown in Dulbecco’s Modified Eagle’s Medium (DMEM) containing 10% fetal bovine serum (FBS) and 1% penicillin/streptomycin in a 95% air and 5% CO2 atmosphere at 37 °C. RAW 264.7 cells at 90%–95% confluency were detached and seeded (50,000 cells/well) into a 96-well culture plate with 50 μL of DMEM and incubated for 24 h. The cells were then stimulated in […] of LPS (Escherichia coli, serotype 0111:B4) and 1 ng/ml of interferon-gamma (IFN-γ) in the presence or absence of test compounds for 17 h. Nitrite concentration was then determined by Griess assay by reacting 50 μL of cell culture supernatant with 50 μL of Griess reagent (1% sulfanilamide and 0.1% N-(1-naphthyl)ethylenediamine dihydrochloride in 2.5% phosphoric acid) at room temperature. The optical density was measured at 550 nm after 5 min of incubation at room temperature with a microplate reader.

[2] = Cell cytotoxicity determination (MTT assay); type: cell-based, murine; conditions: mouse, RAW 264.7 macrophage cells, RAW 264.7 cells, read-out: Cytotoxicity IC50 (µM) ± S.E.M
Description: The synthesized compounds were screened for NO suppression activity in IFN-γ/LPS-stimulated RAW 264.7 macrophages at a 50 µM test concentration. […] The IC50 values of the fifty-seven bioactive compounds were determined and compared to that of the positive control, curcumin. An MTT assay was also carried out to confirm that NO inhibition was not due to cytotoxicity. […] The complete bioassay results of all the compounds are provided as Table S2 in Supplementary Data.
RAW 264.7 murine macrophages cells obtained from American Type Culture Collection (ATCC, Rockville, MD, USA) were grown in Dulbecco’s Modified Eagle’s Medium (DMEM) containing 10% fetal bovine serum (FBS) and 1% penicillin/streptomycin in a 95% air and 5% CO2 atmosphere at 37 °C.
Supernatant in each well was removed followed by addition of 100 µL DMEM. Subsequently, 20 µL of 3-(4,5-dimethylthiazol-2-yl)-2,5-diphenyltetrazolium bromide (MTT, 5 mg/mL) was then added and the plate was incubated in a 95% air and 5% CO2 atmosphere at 37 °C for 4 h. The mixture of culture media and MTT in all wells were removed and the purplish formazan crystals formed were dissolved in dimethyl sulfoxide (DMSO) and further incubated for 15 min at room temperature. The color intensity was then measured at 570 nm at room temperature.

[3] = IFN-γ/LPS-stimulated RAW 264.7 cells
[4] = IFN-γ/LPS-stimulated RAW 264.7 cells, read-out: NO Inhibition IC50 (µM) ± S.E.M
[5] = Mus musculus, IFN-γ/LPS-stimulated RAW 264.7 cells
[6] = Mus musculus, RAW264.7, IFN-γ/LPS-stimulated RAW 264.7 cells, read-out: NO Inhibition IC50 (µM) ± S.E.M
[7] = Mus musculus, RAW264.7, Table 6, NO suppression IC50 used for QSAR, unit inferred, read-out: IC50
[8] = Mus musculus, RAW264.7, −log IC50 of NO suppression, read-out: pIC50 (converted)

Row | Structure (SMILES) | NO Inhibition at 50 µM (%) ± S.E.M [1, 3] [%] | IC50 [1, 4] [µM] | inhibition at 50 µM [1, 5] [%] | IC50 [1, 6] [µM] | IC50 [1, 7] [µM] | IC50 [1, 8] [µM] | IC50 [2] [µM]
1 | COc1cc(/C=C/C(O)=C/C(=O)c2ccccc2O)cc(OC)c1OC [Compound 9] | 96.6 ± 1.4 | < 20 | 96.6 ± 1.43 | 16.6 ± 1.14 | 16.6 ± 1.1 | 16.6 | > 100
2 | O=C(/C=C(O)/C=C/c1cccs1)c1ccccc1O [Compound 16] | 79.1 ± 4.6 | – | 79.1 ± 4.58 | 42.64 ± 0.128 | 42.6 ± 0.1 | 42.7 | > 100
3 | O=C(/C=C(O)/C=C/c1ccccc1)c1cc(Br)ccc1O [Compound 41] | – | – | 79.9 ± 8.7 | 20.8 ± 0.54 | 20.8 ± 0.5 | 20.9 | > 100
4 | O=C(/C=C(O)/C=C/c1ccccc1Cl)c1cc(Cl)ccc1O [Compound 22] | 82.5 ± 4.3 | – | 82.5 ± 4.32 | 30 ± 2.1 | 30 ± 2.1 | 30.2 | > 100
5 | O=C(/C=C(O)/C=C/c1cccc(Cl)c1)c1ccccc1O [Compound 3] | 93.0 ± 3.4 | – | 93 ± 3.43 | 26.7 ± 0.732 | 26.7 ± 0.7 | 26.9 | > 100
6 | COc1ccccc1/C=C/C(O)=C/C(=O)c1ccccc1O [Compound 5] | 91.8 ± 1.5 | – | 91.8 ± 1.49 | 25.7 ± 0.621 | 25.7 ± 0.6 | 25.7 | > 100
7 | COc1ccc(/C=C/C(O)=C/C(=O)c2ccccc2O)cc1OC [Compound 8] | 94.7 ± 1.7 | – | 94.7 ± 1.7 | 24.6 ± 0.73 | 24.6 ± 0.7 | 24.5 | > 100
8 | COc1cccc(/C=C/C(O)=C/C(=O)c2cc(Cl)ccc2O)c1 [Compound 25] | 76.3 ± 6.5 | < 20 | 76.3 ± 6.48 | 17.4 ± 0.372 | 17.4 ± 0.4 | 17.4 | > 100
9 | COc1ccc(O)c(C(=O)/C=C(O)/C=C/c2cccs2)c1 [Compound 71] | 85.0 ± 2.7 | – | 85 ± 2.66 | 35.6 ± 0.621 | 35.6 ± 0.6 | 35.5 | > 100
10 | COc1ccc(C(=O)/C=C(O)/C=C/c2cc(OC)c(OC)c(OC)c2)c(O)c1 [Compound 52] | 96.4 ± 0.4 | – | 96.39 ± 0.37 | 29.3 ± 0.306 | 29.3 ± 0.3 | 29.5 | > 100
11 | COc1ccc(O)c(C(=O)/C=C(O)/C=C/c2cc(OC)c(OC)c(OC)c2)c1 [Compound 64] | 95.2 ± 1.1 | < 20 | 95.2 ± 1.09 | 18.4 ± 0.246 | 18.4 ± 0.2 | 18.2 | > 100
12 | COc1ccc(C(=O)/C=C(O)/C=C/c2ccccc2Cl)c(O)c1 [Compound 46] | 76.2 ± 4.6 | – | 76.2 ± 4.57 | 58.5 ± 2.45 | 58.5 ± 2.4 | 58.9 | > 100
13 | O=C(/C=C(O)/C=C/c1cccc(Cl)c1)c1cc(Br)ccc1O [Compound 43] | 81.2 ± 5.2 | < 20 | 81.2 ± 5.16 | 19.8 ± 0.907 | 19.8 ± 0.9 | 20 | > 100
14 | O=C(/C=C(O)/C=C/c1cc(O)ccc1O)c1ccccc1O [Compound 83] | 94.3 ± 1.8 | < 20 | 94.3 ± 1.83 | 16.7 ± 0.557 | 16.7 ± 0.6 | 16.6 | –
15 | O=C(/C=C(O)/C=C/c1cccs1)c1ccc(O)cc1O [Compound 95] | 60.4 ± 2.0 | – | 60.4 ± 2.04 | 44.8 ± 1.57 | 44.8 ± 1.6 | 44.7 | > 100
16 | COc1ccc(O)c(C(=O)/C=C(O)/C=C/c2ccccc2)c1 [Compound 58] | 92.8 ± 1.8 | – | 92.8 ± 1.8 | 25.9 ± 0.325 | 25.9 ± 0.3 | 25.7 | > 100
17 | O=C(/C=C(O)/C=C/c1ccccc1)c1ccccc1O [Compound 1] | 94.7 ± 1.2 | – | 94.7 ± 1.2 | 22.6 ± 0.515 | 22.6 ± 0.5 | 22.4 | 56.2 ± 1.1
18 | O=C(/C=C(O)/C=C/c1cccc2ccccc12)c1ccccc1O [Compound 19] | 85.8 ± 3.9 | – | 85.8 ± 3.93 | 23 ± 1.7 | 23 ± 1.7 | 22.9 | > 100
19 | COc1ccc(O)c(C(=O)/C=C(O)/C=C/c2ccco2)c1 [Compound 67] | 72.1 ± 3.1 | – | 72.1 ± 3.07 | 71.5 ± 2.5 | 71.5 ± 2.5 | 70.8 | > 100
20 | Cc1ccc(/C=C/C(O)=C/C(=O)c2cc(Cl)ccc2O)s1 [Compound 37] | 56.0 ± 2.6 | – | 56 ± 2.62 | 62.4 ± 2.29 | 62.4 ± 2.3 | 63.1 | > 100
21 | COc1ccc(O)c(C(=O)/C=C(O)/C=C/c2ccc(OC)c(OC)c2)c1 [Compound 63] | 92.2 ± 0.8 | < 20 | 92.19 ± 0.77 | 19.8 ± 0.365 | 19.8 ± 0.4 | 20 | > 100
22 | O=C(/C=C(O)/C=C/c1ccccc1)c1cc(Cl)ccc1O [Compound 21] | 85.3 ± 6.8 | – | 85.3 ± 6.76 | 47.6 ± 1.14 | 47.6 ± 1.1 | 47.9 | > 100
23 | COc1ccccc1/C=C/C(O)=C/C(=O)c1cc(Cl)ccc1O [Compound 24] | 70.4 ± 1.3 | – | 70.4 ± 1.32 | 36 ± 0.515 | 36 ± 0.5 | 36.3 | > 100
24 | COc1ccc(O)c(C(=O)/C=C(O)/C=C/c2ccccc2OC)c1 [Compound 61] | 65.8 ± 2.4 | – | 65.8 ± 2.37 | 27.41 ± 0.207 | 27.4 ± 0.2 | 27.5 | > 100
25 | COc1cccc(/C=C/C(O)=C/C(=O)c2cc(OC)ccc2O)c1 [Compound 62] | 92.6 ± 1.2 | – | 92.6 ± 1.18 | 35.06 ± 0.165 | 35.1 ± 0.2 | 34.7 | > 100
26 | COc1ccc(OC)c(/C=C/C(O)=C/C(=O)c2ccccc2O)c1 [Compound 14] | – | – | 92.9 ± 0.2 | 28.4 ± 0.435 | 28.4 ± 0.4 | 28.2 | > 100
27 | O=C(/C=C(O)/C=C/c1ccc(Cl)s1)c1cc(Cl)ccc1O [Compound 36] | 71.6 ± 3.2 | – | 71.5 ± 3.2 | 25.3 ± 1.73 | 25.3 ± 1.7 | 25.1 | > 100
28 | COc1ccc(O)c(C(=O)/C=C(O)/C=C/c2cccc(Cl)c2)c1 [Compound 59] | 89.1 ± 3.6 | – | 89.1 ± 3.56 | 35.7 ± 0.789 | 35.7 ± 0.8 | 35.5 | > 100
29 | Cc1ccc(/C=C/C(O)=C/C(=O)c2cc(Cl)ccc2O)o1 [Compound 38] | 73.8 ± 1.1 | – | 73.8 ± 1.14 | 25.5 ± 1.03 | 25.5 ± 1 | 25.7 | > 100
